Columns and labels:
Assay type in all cases: functional
Nakaseomyces glabratus = experiment: Antifungal activity against Candida glabrata assessed as reduction in fungal cell growth incubated for 48 hrs by broth microdilution method
Pichia kudriavzevii = experiment: Antifungal activity against Candida krusei assessed as reduction in fungal cell growth incubated for 48 hrs by broth microdilution method
Aspergillus niger = experiment: Antifungal activity against Aspergillus niger assessed as reduction in fungal cell growth incubated for 72 hrs by broth microdilution method
Candida tropicalis = experiment: Antifungal activity against Candida tropicalis assessed as reduction in fungal cell growth incubated for 48 hrs by broth microdilution method
Cryptococcus neoformans = experiment: Antifungal activity against Cryptococcus neoformans LA314 assessed as reduction in fungal cell growth incubated for 48 hrs by broth microdilution method; settings: LA314, 48 h
Candida albicans = experiment: Antifungal activity against Candida albicans assessed as reduction in fungal cell growth incubated for 48 hrs by broth microdilution method
Candida parapsilosis = experiment: Antifungal activity against Candida parapsilosis ATCC 22019 assessed as reduction in fungal cell growth incubated for 48 hrs by broth microdilution method; settings: Lodderomyces parapsilosis, ATCC 22019, 48 h

Measured: MIC

CC(n1nnc(CCN2CCN(c3ccccc3)CC2)n1)C(O)(Cn1cncn1)c1ccc(F)cc1F (stereo not drawn)
1 to 16 µg/mL: Nakaseomyces glabratus | Pichia kudriavzevii | Aspergillus niger | Candida tropicalis | Cryptococcus neoformans | Candida albicans | Candida parapsilosis

CC(n1nnnc1CCN1CCN(Cc2ccccc2)CC1)C(O)(Cn1cncn1)c1ccc(F)cc1F (stereo not drawn)
0.5 to 16 µg/mL: Nakaseomyces glabratus | Pichia kudriavzevii | Aspergillus niger | Candida tropicalis | Cryptococcus neoformans | Candida albicans | Candida parapsilosis

C[C@H](n1nnc(CCN2CCN(c3c(Cl)cccc3Cl)CC2)n1)[C@](O)(Cn1cncn1)c1ccc(F)cc1F
0.25 to 16 µg/mL: Nakaseomyces glabratus | Pichia kudriavzevii | Aspergillus niger | Candida tropicalis | Cryptococcus neoformans | Candida albicans | Candida parapsilosis

CCCCOc1ccccc1N1CCN(CCc2nnn(CC(O)(Cn3cncn3)c3ccc(F)cc3F)n2)CC1 (stereo not drawn)
1 to 16 µg/mL: Nakaseomyces glabratus | Pichia kudriavzevii | Aspergillus niger | Candida tropicalis | Cryptococcus neoformans | Candida albicans | Candida parapsilosis

C[C@H](n1nnnc1CCN1CCN(c2ccc(F)cc2)CC1)[C@](O)(Cn1cncn1)c1ccc(F)cc1F
0.12 to 16 µg/mL: Nakaseomyces glabratus | Pichia kudriavzevii | Aspergillus niger | Candida tropicalis | Cryptococcus neoformans | Candida albicans | Candida parapsilosis

CC(n1nnc(CCN2CCN(Cc3ccccc3)CC2)n1)C(O)(Cn1cncn1)c1ccc(F)cc1F (stereo not drawn)
1 to 16 µg/mL: Nakaseomyces glabratus | Pichia kudriavzevii | Aspergillus niger | Candida tropicalis | Cryptococcus neoformans | Candida albicans | Candida parapsilosis

CCCCOc1ccccc1N1CCN(CCc2nnnn2[C@@H](C)[C@](O)(Cn2cncn2)c2ccc(F)cc2F)CC1
0.12 to 16 µg/mL: Nakaseomyces glabratus | Pichia kudriavzevii | Aspergillus niger | Candida tropicalis | Cryptococcus neoformans | Candida albicans | Candida parapsilosis

C[C@H](n1nnc(CCN2CCN(Cc3ccccc3)CC2)n1)[C@](O)(Cn1cncn1)c1ccc(F)cc1F
0.25 to 16 µg/mL: Nakaseomyces glabratus | Pichia kudriavzevii | Aspergillus niger | Candida tropicalis | Cryptococcus neoformans | Candida albicans | Candida parapsilosis

OC(Cn1cncn1)(Cn1nnc(CCN2CCN(c3ccc(F)cc3)CC2)n1)c1ccc(F)cc1F (stereo not drawn)
1 to 16 µg/mL: Nakaseomyces glabratus | Pichia kudriavzevii | Aspergillus niger | Candida tropicalis | Cryptococcus neoformans | Candida albicans | Candida parapsilosis

Source: ChEMBL document CHEMBL4393657, “Tetrazole hybrids and their antifungal activities” (2019)
